According to PubChem BioAssay (NCI):
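Method: 48-hour compound exposure of cells in 96-well plates, five concentrations, linear interpolation of endpoints. Abbreviation: GI50, concentration required for 50% inhibition of growth. At the TGI there is no net growth.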 Where a SMILES comes first, the peptide text is derived from it. [ ]: non-standard residue; d: D form. The star is where a group is joined. ξ: configuration not given here. NMeN = CN[C@@H](CC(N)=O)C(=O)O; NMeV = CN[C@H](C(=O)O)C(C)C; ξNMeV = CNC(C(=O)O)C(C)C; Boc = CC(C)(C)OC(=O)*; ξNMeA = CNC(C)C(=O)O

What was measured:
Test in all cases: DTP human tumour cell line panel, 48 h
KM20L2 colon = tested on: KM20L2 colon
HOP-18 NSCLC = tested on: HOP-18 NSCLC
DMS 273 small cell lung = tested on: DMS 273 small cell lung
DMS 114 small cell lung = tested on: DMS 114 small cell lung
BT-549 breast = tested on: BT-549 breast
DU-145 prostate = tested on: DU-145 prostate
MDA-MB-435 = tested on: MDA-MB-435
MCF7 breast = tested on: MCF7 breast
MDA-MB-231 breast = tested on: MDA-MB-231 breast

Nc1ncn(C2C=C(CO)C(O)C2O)c(=O)n1 (configuration not stated)
TGI (KM20L2 colon): > 100 µM
TGI (HOP-18 NSCLC): > 100 µM
TGI (DMS 273 small cell lung): > 100 µM

COC(=O)C12CC3CC(C1)CC(C(=O)OC)(C3)C2
TGI (KM20L2 colon): > 100 µM
TGI (HOP-18 NSCLC): > 100 µM
TGI (DMS 114 small cell lung): > 100 µM
TGI (DMS 273 small cell lung): > 100 µM

CC[O-].CC[O-].O=C1C(c2ccccc2)=C([O-])c2ccccc21.O=C1C(c2ccccc2)=C([O-])c2ccccc21.[Ti+4]
GI50 (KM20L2 colon): > 100 µM
TGI (KM20L2 colon): > 100 µM
GI50 (HOP-18 NSCLC): > 100 µM
TGI (HOP-18 NSCLC): > 100 µM
GI50 (DMS 114 small cell lung): > 100 µM
TGI (DMS 114 small cell lung): > 100 µM
GI50 (DMS 273 small cell lung): > 100 µM
TGI (DMS 273 small cell lung): > 100 µM

COc1cc(C(=O)C/C(CCC(=O)Nc2ccc(Cl)cc2C)=N/NC(=O)C(N)=O)ccc1O
TGI (KM20L2 colon): > 100 µM
TGI (HOP-18 NSCLC): > 100 µM
TGI (DMS 114 small cell lung): > 100 µM
TGI (DMS 273 small cell lung): > 100 µM

CCCCCCCCCCC(O)C1CCC(C(O)CCC(O)C2CCC(CCCCCCC[C@H](O)CC3=C[C@@H](C)OC3=O)O2)O1 (some centres not stated)
TGI (KM20L2 colon): > 100 µM
TGI (HOP-18 NSCLC): > 100 µM
TGI (BT-549 breast): 2.26 µM
TGI (DMS 273 small cell lung): > 100 µM

COC(=O)C(C)N(C)C(=O)[C@H](CC(N)=O)N(C)C(=O)[C@@H]1CCCN1C(=O)[C@H](C(C)C)N(C)C(=O)C(C(C)C)N(C)C(=O)[C@@H](NC(=O)OC(C)(C)C)C(C)C (some centres not stated) (Boc-V[ξNMeV][NMeV]P[NMeN][ξNMeA]-OMe)
TGI (KM20L2 colon): > 100 µM
TGI (DU-145 prostate): > 50 µM
TGI (MDA-MB-435): > 50 µM
TGI (HOP-18 NSCLC): > 100 µM
TGI (MCF7 breast): > 50 µM
TGI (BT-549 breast): > 50 µM
TGI (MDA-MB-231 breast): > 50 µM
TGI (DMS 273 small cell lung): > 100 µM

Cc1ccc(NC(=O)CC(=O)n2nc(-c3ccccc3)c(N=Nc3ccccc3Cl)c2-c2ccccc2)cc1
GI50 (KM20L2 colon): > 100 µM
TGI (KM20L2 colon): > 100 µM
TGI (HOP-18 NSCLC): > 100 µM
GI50 (DMS 114 small cell lung): > 100 µM
TGI (DMS 114 small cell lung): > 100 µM
TGI (DMS 273 small cell lung): > 100 µM

CCc1nc(N)nc(C(=O)NCCNC(=O)c2nc(N)nc(CC)c2C)c1C
TGI (KM20L2 colon): > 100 µM
TGI (HOP-18 NSCLC): > 100 µM
TGI (DMS 114 small cell lung): > 100 µM
TGI (DMS 273 small cell lung): > 100 µM

CC(C)C1CCC/C=C/C=C/C=C/C=C/C(OC2OC(C)C(O)C(N)C2O)CC2OC(O)(CC(O)CC(O)C(O)CCC(=O)O1)CC(O)C2C(=O)O (configuration not stated)
TGI (KM20L2 colon): > 52.5 µM
TGI (HOP-18 NSCLC): > 52.5 µM
TGI (DMS 114 small cell lung): > 52.5 µM

CC(=O)/C(=C\C1=CCCO1)C(=O)Nc1ccccc1C
TGI (HOP-18 NSCLC): > 100 µM
TGI (DMS 114 small cell lung): > 100 µM

O=C1NC2CCC(C2)C1c1ccccc1 (configuration not stated)
TGI (HOP-18 NSCLC): > 100 µM
TGI (DMS 114 small cell lung): > 100 µM
TGI (DMS 273 small cell lung): > 100 µM

COC(=O)C12C3C4C5C3(C#N)C1C5(C(=O)OC)C42C(=O)N(C(C)C)C(C)C (configuration not stated)
TGI (KM20L2 colon): > 100 µM
TGI (HOP-18 NSCLC): > 100 µM
TGI (DMS 114 small cell lung): > 100 µM
TGI (DMS 273 small cell lung): > 59.3 µM

CC/C(=C(/CC)c1ccc(O)cc1)c1ccc([O-])cc1.CC/C(=C(/CC)c1ccc(O)cc1)c1ccc([O-])cc1.O=C([CH-]C(=O)c1ccccc1)c1ccccc1.O=C([CH-]C(=O)c1ccccc1)c1ccccc1.[Ti+4]
GI50 (KM20L2 colon): 19.3 µM
TGI (KM20L2 colon): 41.3 µM
GI50 (HOP-18 NSCLC): 24.4 µM
TGI (HOP-18 NSCLC): 39.3 µM
GI50 (DMS 273 small cell lung): 16.3 µM
TGI (DMS 273 small cell lung): > 100 µM

CCCC(C)C[C@@H](C)CC(C)/C=C(\C)c1oc(=O)c(C)c(O)c1C (some centres not stated) (tested in a mixture with another compound)
TGI (KM20L2 colon): 25.7 µM
TGI (DMS 114 small cell lung): 32.2 µM
TGI (DMS 273 small cell lung): 32.4 µM
